Read-outs that look alike come from different tables or passages of the source.
How the values were obtained:
[1] = as reported in brain studies; cited from earlier work
CB1-R [2] = conditions: cited from earlier work
myocardial CB1-R [3] = target: myocardial CB1-R (Mus musculus, UniProt P47746); assay: [^11C]-OMAR dynamic micro-PET/CT, myocardial OMAR retention in mice; assay type: in vivo; conditions: for myocardial OMAR retention: median [range]
[4] = median (range)
myocardial CB1-R [5] = target: myocardial CB1-R (Homo sapiens, UniProt P21554); assay: [^11C]-OMAR PET/CT, myocardial retention index of OMAR in humans; assay type: in vivo; conditions: median (range)
Chain of myocardial CB1-R (Homo sapiens, UniProt P21554) (P21554 whole entry): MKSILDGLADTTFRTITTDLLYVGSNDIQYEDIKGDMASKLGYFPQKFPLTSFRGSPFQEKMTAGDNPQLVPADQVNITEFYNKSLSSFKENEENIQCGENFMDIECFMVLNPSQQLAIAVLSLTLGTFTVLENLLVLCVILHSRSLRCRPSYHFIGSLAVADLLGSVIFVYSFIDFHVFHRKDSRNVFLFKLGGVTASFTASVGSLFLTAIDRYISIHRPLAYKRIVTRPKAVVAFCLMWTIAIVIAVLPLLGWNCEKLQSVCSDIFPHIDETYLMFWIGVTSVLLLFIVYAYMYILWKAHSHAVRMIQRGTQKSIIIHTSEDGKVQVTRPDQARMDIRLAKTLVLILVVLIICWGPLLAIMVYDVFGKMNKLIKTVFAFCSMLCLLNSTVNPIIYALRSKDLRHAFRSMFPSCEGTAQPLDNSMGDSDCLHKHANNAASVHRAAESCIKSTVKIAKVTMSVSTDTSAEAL

CB1-R [6] = target: CB1-R (Mus musculus, UniProt P47746); assay: Rimonabant blocking study of [^11C]-OMAR uptake in obese mice; assay type: in vivo
Chain of CB1-R (Mus musculus, UniProt P47746) (P47746 whole entry): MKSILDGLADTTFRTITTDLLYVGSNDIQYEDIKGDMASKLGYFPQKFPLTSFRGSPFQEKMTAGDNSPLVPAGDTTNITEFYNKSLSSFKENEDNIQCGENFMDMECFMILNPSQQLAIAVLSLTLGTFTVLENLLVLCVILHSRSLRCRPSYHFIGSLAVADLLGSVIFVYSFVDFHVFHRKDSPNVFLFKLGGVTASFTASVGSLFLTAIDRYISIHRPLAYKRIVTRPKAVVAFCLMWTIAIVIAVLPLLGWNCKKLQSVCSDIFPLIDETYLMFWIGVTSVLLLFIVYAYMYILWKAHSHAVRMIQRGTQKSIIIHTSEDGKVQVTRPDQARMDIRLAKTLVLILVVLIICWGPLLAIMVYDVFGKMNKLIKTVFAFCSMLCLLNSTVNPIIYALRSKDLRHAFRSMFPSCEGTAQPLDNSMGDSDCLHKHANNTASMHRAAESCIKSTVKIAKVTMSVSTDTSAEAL

[7] = obese mice, intravenous, median (range)

Chain of myocardial CB1-R (Mus musculus, UniProt P47746) (P47746 whole entry): as above

## [11CH3]Oc1ccc(-c2c(C#N)c(C(=O)NN3CCCCC3)nn2-c2ccc(Cl)cc2Cl)cc1 [[^11C]-OMAR]
[1]
  radioactivity related to unchanged [^11C]-OMAR: at least 94%
CB1-R [2]; brain
  blocking of [^11C]-OMAR uptake reported for brain studies: about 75%
CB1-R [2]; previous blocking studies in the brain
  binding potential in the brain: about 2
Myocardial CB1-R [3]; heart, ob/ob vs lean control mice, micro-PET/CT
  fold higher [^11C]-OMAR retention in obese versus lean mice: 8 fold
Myocardial CB1-R [3]; normal-weight mice
  myocardial OMAR retention: 0.13 %/min
Myocardial CB1-R [3]; obese mice
  binding potential of [^11C]-OMAR to myocardial CB1-R: 6.4
  myocardial OMAR retention: 8.29 %/min
[4]; AOB
  DBP after [^11C]-OMAR injection: 71 (56–78) mm Hg
  HR after [^11C]-OMAR injection: 72 (65–84) beats/min
  MAP after [^11C]-OMAR injection: 93 (76–96) mm Hg
  RPP after [^11C]-OMAR injection: 9,588 (7,325–10,960) mm Hg/min
  SBP after [^11C]-OMAR injection: 133 (116–140) mm Hg
[4]; CON
  DBP after [^11C]-OMAR injection: 62 (60–68) mm Hg
  HR after [^11C]-OMAR injection: 70 (61–77) beats/min
  MAP after [^11C]-OMAR injection: 81 (75–97) mm Hg
  SBP after [^11C]-OMAR injection: 120 (118–124) mm Hg
Myocardial CB1-R [5]; AOB (advanced obesity)
  OMAR retention (absolute left ventricular): 5.68 (1.88–6.89) %/min
Myocardial CB1-R [5]; CON (normal-weight control subjects)
  OMAR retention (absolute left ventricular): 0.47 (0.13–1.31) %/min
CB1-R [6]; 5 mg/kg dose of rimonabant, heart
  [^11C]-OMAR uptake that could not be blocked: about 42%
CB1-R [6]; myocardial blocking study
  baseline-to-block ratio of myocardial [^11C]-OMAR uptake: about 2.4
  binding potential: > 1
[7]; 5 min
  [^11C]-OMAR uptake, Blood: 1.19 (1.10–1.33) %ID/g Tissue
  [^11C]-OMAR uptake, Cerebellum: 2.43 (1.72–2.74) %ID/g Tissue
  [^11C]-OMAR uptake, Heart: 4.63 (4.00–5.23) %ID/g Tissue
[7]; 10 min
  [^11C]-OMAR uptake, Blood: 0.99 (0.91–1.19) %ID/g Tissue
  [^11C]-OMAR uptake, Cerebellum: 2.32 (2.11–2.50) %ID/g Tissue
  [^11C]-OMAR uptake, Thalamus: 1.62 (1.59–1.72) %ID/g Tissue
[7]; 15 min
  [^11C]-OMAR uptake, Blood: 0.99 (0.91–1.19) %ID/g Tissue
  [^11C]-OMAR uptake, Cerebellum: 2.53 (2.43–2.55) %ID/g Tissue
  [^11C]-OMAR uptake, Thalamus: 1.69 (1.59–1.72) %ID/g Tissue
[7]; 30 min
  [^11C]-OMAR uptake, Blood: 0.55 (0.39–0.65) %ID/g Tissue
  [^11C]-OMAR uptake, Cerebellum: 2.11 (1.25–2.38) %ID/g Tissue
  [^11C]-OMAR uptake, Heart: 2.14 (2.09–2.17) %ID/g Tissue
  [^11C]-OMAR uptake, Thalamus: 1.21 (1.18–1.21) %ID/g Tissue
[7]; 60 min
  [^11C]-OMAR uptake, Blood: 0.46 (0.46–0.47) %ID/g Tissue
  [^11C]-OMAR uptake, Cerebellum: 1.37 (1.25–1.51) %ID/g Tissue
  [^11C]-OMAR uptake, Heart: 1.55 (1.48–1.61) %ID/g Tissue
  [^11C]-OMAR uptake, Thalamus: 0.73 (0.58–0.77) %ID/g Tissue
[7]; 90 min
  [^11C]-OMAR uptake, Blood: 0.55 (0.51–0.68) %ID/g Tissue
  [^11C]-OMAR uptake, Cerebellum: 1.11 (1.05–2.00) %ID/g Tissue
  [^11C]-OMAR uptake, Heart: 1.40 (1.40–1.79) %ID/g Tissue
  [^11C]-OMAR uptake, Thalamus: 0.55 (0.38–0.98) %ID/g Tissue

— article PMC6178217 (JACC. Cardiovascular imaging, 2018)
